{"source": "patent US20160215267A1", "about": "“METHODS FOR GENERATING 3D CELL CULTURE MODEL IN HIGH RESPIRATION ENVIRONMENTS FOR HIGH-CONTENT ANALYSES AND SCREENING” (IKKO-ZU CORPORATION, priority 2015, published 2016)", "test_system": "HepG2/C3A", "test": "Drug-induced liver injury (DILI) simulated by adjusting air supply from the well bottom, island-shaped 3Ds on PDMS", "format": "cell-based, human", "settings": "24 h exposure, highest concentration 20 mM", "experimental": "Compounds were dissolved at 200 times the highest test concentration in 100% DMSO. […] The final DMSO concentration was set constant and less than 0.4% over the tested dilutions. […] Therefore, serially-diluted compounds were finally diluted in situ at 1/2 and mixed by a gentle rocking motion a few times. […]\nCells grown as island 3Ds in the gas-permeable PDMS membrane were exposed to drug treatments described above. […] The plates were equilibrated to 5% CO2 and 3TC and measured by Opera (PerkinElmer).\nFor detailed global image acquisition, a 20× objective was used in spinning-disc confocal mode. […] Then the cell area was estimated for selected nuclei in the regions, and TMRM emission intensity in the cell regions was calculated for the selected cells over the 4 designated fields per well. […] For the dose-response and Z′ values, the intensity values were analyzed on a projection image representing the peak intensity values for each of 4 Z-planes projected onto a single image. For the detailed analysis of the entire 3Ds, each Z-plane was individually analyzed.", "data": [{"compound": "CC(=O)Nc1ccc(O)cc1", "note": "[Acetaminophen, acetaminophen]", "values": [{"measurement": "toxicity response (dose response curve)", "setting": "3Ds on PDMS membrane left entirely bare", "result": "apparently unresponsive"}, {"measurement": "toxicity response (dose response curve)", "setting": "3Ds on PDMS membrane partially-sealed", "result": "suggesting a DILI effect"}]}]}
